Results reported in PubChem BioAssay AID2060910 (Molecular Pharmacology Branch, DTP, NCI, 2025).

System: 242566-281-R-J2-PDC complex spheroid viability
Assay: Anticancer human tumor 242566-281-R-J2-PDC patient-derived pancreatic carcinoma cell line growth inhibition [RAS]
Settings: for IC50: curve of first compound; for viability, T/C: stronger effect = lower value; active means viability on the fitted dose curve at most 10% of control; inactive means the rest
Summary of the method: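 Agents were tested in combination matrices in half-log decrements from a top concentration at or near clinical Cmax (10 microM if undetermined). Targets were multi-cell spheroids of tumour lines plus HUVEC and MSC stromal cells.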

[1] = second compound 0.000949 µM, first compound 0.000949 µM
[2] = second compound 0.000949 µM, first compound 0.003 µM
[3] = second compound 0.000949 µM, first compound 0.00949 µM
[4] = second compound 0.000949 µM, first compound 0.03 µM
[5] = second compound 0.000949 µM, first compound 0.0949 µM
[6] = second compound 0.000949 µM, first compound 0.3 µM
[7] = second compound 0.003 µM, first compound 0.000949 µM
[8] = second compound 0.003 µM, first compound 0.003 µM
[9] = second compound 0.003 µM, first compound 0.00949 µM
[10] = second compound 0.003 µM, first compound 0.03 µM
[11] = second compound 0.003 µM, first compound 0.0949 µM
[12] = second compound 0.003 µM, first compound 0.3 µM
[13] = second compound 0.00949 µM, first compound 0.000949 µM
[14] = second compound 0.00949 µM, first compound 0.003 µM
[15] = second compound 0.00949 µM, first compound 0.00949 µM
[16] = second compound 0.00949 µM, first compound 0.03 µM
[17] = second compound 0.00949 µM, first compound 0.0949 µM
[18] = second compound 0.00949 µM, first compound 0.3 µM
[19] = second compound 0.03 µM, first compound 0.000949 µM
[20] = second compound 0.03 µM, first compound 0.003 µM
[21] = second compound 0.03 µM, first compound 0.00949 µM
[22] = second compound 0.03 µM, first compound 0.03 µM
[23] = second compound 0.03 µM, first compound 0.0949 µM
[24] = second compound 0.03 µM, first compound 0.3 µM
[25] = second compound 0.0949 µM, first compound 0.000949 µM
[26] = second compound 0.0949 µM, first compound 0.003 µM
[27] = second compound 0.0949 µM, first compound 0.00949 µM
[28] = second compound 0.0949 µM, first compound 0.03 µM
[29] = second compound 0.0949 µM, first compound 0.0949 µM
[30] = second compound 0.0949 µM, first compound 0.3 µM
[31] = second compound 0.3 µM, first compound 0.000949 µM
[32] = second compound 0.3 µM, first compound 0.003 µM
[33] = second compound 0.3 µM, first compound 0.00949 µM
[34] = second compound 0.3 µM, first compound 0.03 µM
[35] = second compound 0.3 µM, first compound 0.0949 µM
[36] = second compound 0.3 µM, first compound 0.3 µM
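Further: spheroids exposed to compound for 7 days before readout.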
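Wherever viability, T/C is given: 100% = DMSO vehicle control wells.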

C=CC(=O)N1CCN(c2nc(OCC3CCCN3C)nc3c(F)c(-c4nc(N)cc(C)c4C(F)(F)F)c(Cl)cc23)C(C)C1 (stereo unspecified) + CCn1c(-c2cccnc2C(C)OC)c2c3cc(ccc31)N1CCOC(CC(NC(=O)C(C(C)C)N(C)C(=O)C3(F)CCN(C(=O)C#CC(C)(C)N(C)C)CC3)C(=O)N3CCCC(N3)C(=O)OCC(C)(C)C2)C1
> 1000 nM: IC50 (second compound 0.000949 µM) | IC50 (second compound 0.003 µM) | IC50 (second compound 0.00949 µM) | IC50 (second compound 0.03 µM) | IC50 (second compound 0.0949 µM) | IC50 (second compound 0.3 µM)
inactive: viability, T/C (second compound 0.000949 µM, first compound 0.00316 µM) 111% | viability, T/C (second compound 0.000949 µM, first compound 0.01 µM) 98.5% | viability, T/C (second compound 0.000949 µM, first compound 0.0316 µM) 88.2% | viability, T/C (second compound 0.000949 µM, first compound 0.1 µM) 113% | viability, T/C (second compound 0.000949 µM, first compound 0.316 µM) 93.8% | viability, T/C (second compound 0.000949 µM, first compound 1 µM) 79.2% | viability, T/C (second compound 0.003 µM, first compound 0.00316 µM) 115% | viability, T/C (second compound 0.003 µM, first compound 0.01 µM) 93.2% | viability, T/C (second compound 0.003 µM, first compound 0.0316 µM) 99.8% | viability, T/C (second compound 0.003 µM, first compound 0.1 µM) 84.8% | viability, T/C (second compound 0.003 µM, first compound 0.316 µM) 95.4% | viability, T/C (second compound 0.003 µM, first compound 1 µM) 86.7% | viability, T/C (second compound 0.00949 µM, first compound 0.00316 µM) 103% | viability, T/C (second compound 0.00949 µM, first compound 0.01 µM) 87% | viability, T/C (second compound 0.00949 µM, first compound 0.0316 µM) 79.5% | viability, T/C (second compound 0.00949 µM, first compound 0.1 µM) 76% | viability, T/C (second compound 0.00949 µM, first compound 0.316 µM) 93.1% | viability, T/C (second compound 0.00949 µM, first compound 1 µM) 83.9% | viability, T/C (second compound 0.03 µM, first compound 0.00316 µM) 98.6% | viability, T/C (second compound 0.03 µM, first compound 0.01 µM) 110% | viability, T/C (second compound 0.03 µM, first compound 0.0316 µM) 97.5% | viability, T/C (second compound 0.03 µM, first compound 0.1 µM) 92.7% | viability, T/C (second compound 0.03 µM, first compound 0.316 µM) 78% | viability, T/C (second compound 0.03 µM, first compound 1 µM) 99.8% | viability, T/C (second compound 0.0949 µM, first compound 0.00316 µM) 86.6% | viability, T/C (second compound 0.0949 µM, first compound 0.01 µM) 93.5% | viability, T/C (second compound 0.0949 µM, first compound 0.0316 µM) 92.6% | viability, T/C (second compound 0.0949 µM, first compound 0.1 µM) 86.9% | viability, T/C (second compound 0.0949 µM, first compound 0.316 µM) 87% | viability, T/C (second compound 0.0949 µM, first compound 1 µM) 90.5% | viability, T/C (second compound 0.3 µM, first compound 0.00316 µM) 85.7% | viability, T/C (second compound 0.3 µM, first compound 0.01 µM) 87.3% | viability, T/C (second compound 0.3 µM, first compound 0.0316 µM) 89.2% | viability, T/C (second compound 0.3 µM, first compound 0.1 µM) 75.7% | viability, T/C (second compound 0.3 µM, first compound 0.316 µM) 95.1% | viability, T/C (second compound 0.3 µM, first compound 1 µM) 81.7%

CC1(C)CCC(Nc2ncc(C(F)(F)F)c(-c3c[nH]c4c(P(C)(C)=O)c(C#N)ccc34)n2)CN1 (stereo unspecified) + CCn1c(-c2cccnc2C(C)OC)c2c3cc(ccc31)N1CCOC(CC(NC(=O)C(C(C)C)N(C)C(=O)C3(F)CCN(C(=O)C#CC(C)(C)N(C)C)CC3)C(=O)N3CCCC(N3)C(=O)OCC(C)(C)C2)C1
> 300 nM: IC50 (second compound 0.000949 µM) | IC50 (second compound 0.003 µM) | IC50 (second compound 0.00949 µM) | IC50 (second compound 0.03 µM) | IC50 (second compound 0.0949 µM) | IC50 (second compound 0.3 µM)
inactive: viability, T/C [1] 114% | viability, T/C [2] 100% | viability, T/C [3] 77.1% | viability, T/C [4] 97.6% | viability, T/C [5] 94% | viability, T/C [6] 70.7% | viability, T/C [7] 111% | viability, T/C [8] 86% | viability, T/C [9] 82.8% | viability, T/C [10] 88.2% | viability, T/C [11] 95.4% | viability, T/C [12] 73.6% | viability, T/C [13] 109% | viability, T/C [14] 86.5% | viability, T/C [15] 92.3% | viability, T/C [16] 90.7% | viability, T/C [17] 90.5% | viability, T/C [18] 82.9% | viability, T/C [19] 95.4% | viability, T/C [20] 103% | viability, T/C [21] 96% | viability, T/C [22] 91.1% | viability, T/C [23] 70.4% | viability, T/C [24] 93.4% | viability, T/C [25] 88.2% | viability, T/C [26] 93.4% | viability, T/C [27] 90.3% | viability, T/C [28] 84.8% | viability, T/C [29] 64.8% | viability, T/C [30] 79.2% | viability, T/C [31] 91% | viability, T/C [32] 83.9% | viability, T/C [33] 75.2% | viability, T/C [34] 63.8% | viability, T/C [35] 71.8% | viability, T/C [36] 79.8%

CCc1c2c(nc3ccc(O)cc13)-c1cc3c(c(=O)n1C2)COC(=O)[C@]3(O)CC + CCn1c(-c2cccnc2C(C)OC)c2c3cc(ccc31)N1CCOC(CC(NC(=O)C(C(C)C)N(C)C(=O)C3(F)CCN(C(=O)C#CC(C)(C)N(C)C)CC3)C(=O)N3CCCC(N3)C(=O)OCC(C)(C)C2)C1
18.8 nM: IC50 (second compound 0.0949 µM)
20 nM: IC50 (second compound 0.03 µM)
20.3 nM: IC50 (second compound 0.00949 µM)
inactive: viability, T/C [1] 101% | viability, T/C [2] 92.3% | viability, T/C [3] 59.5% | viability, T/C [4] 39.7% | viability, T/C [5] 25.5% | viability, T/C [6] 11.6% | viability, T/C [7] 106% | viability, T/C [8] 79.5% | viability, T/C [9] 63.7% | viability, T/C [10] 37.4% | viability, T/C [11] 24.7% | viability, T/C [12] 10.6% | viability, T/C [13] 105% | viability, T/C [14] 76.1% | viability, T/C [15] 68.5% | viability, T/C [16] 45% | viability, T/C [17] 20.7% | viability, T/C [19] 100% | viability, T/C [20] 79.5% | viability, T/C [21] 73.9% | viability, T/C [22] 38.3% | viability, T/C [23] 17.6% | viability, T/C [24] 11.6% | viability, T/C [25] 84.5% | viability, T/C [26] 77.8% | viability, T/C [27] 68% | viability, T/C [28] 38.5% | viability, T/C [29] 14.4% | viability, T/C [31] 84.4% | viability, T/C [32] 70.1% | viability, T/C [33] 56.5% | viability, T/C [34] 25.4% | viability, T/C [35] 12.4%
active: viability, T/C [18] 11.8% | viability, T/C [30] 10.3% | viability, T/C [36] 7.96%
16.9 nM: IC50 (second compound 0.003 µM)
18.1 nM: IC50 (second compound 0.000949 µM)
11 nM: IC50 (second compound 0.3 µM)
